The record followed here is patent publication US11826430B2, “Anti-cancer nuclear hormone receptor-targeting compounds” (Nuvation Bio Inc., priority 2019, dated 2023).

Experiment [1] has as its system 22RV1 cells. Description: Cell proliferation assay, CellTiter Glo. Type of experiment: cell-based. The conditions noted are these: Homo sapiens, 22Rv1, 72 h; cell growth inhibition, three days of treatment. As to the method:
(§1) a. […] IC50s were determined using 8 concentrations/compound. […] Ki=IC50/(1+[L]/Kd) c.
(§2) Cells were plated at varying density in the respective growth medium in 96 well plates. 24 hr later, cells were treated, in triplicate or quadruplicate, with test articles prepared in a range of concentrations by series dilution of DMSO stock solutions in growth medium and incubated for three to seven days. The number of viable 22RV1 and HT-29 cells was measured using CellTiter Glo assay (CTG, Promega, Madison, WI) after three days of treatment. Cell viability data were plotted using GraphPad Prism (GraphPad Software, Inc., San Diego, CA). In addition, a nonlinear regression model with a sigmoidal dose response and variable slope within GraphPad Prism was used to calculate the IC50 value of individual test articles.
For orientation: ATP-based viability assays read luminescence as a measure of living cells.

For experiment [2], the system named is HT-29 cells. Description: Cell proliferation assay, CellTiter Glo. It counts as cell-based. The conditions noted are these: Homo sapiens, HT-29, 72 h; cell growth inhibition, three days of treatment. On the procedure: as §1, §2
Experiment [3] addresses AR in LNCaP cytosol (Homo sapiens (Human), UniProt P10275, T878A). Description: AR binding assay (3H-methyltrienolone displacement). Particulars: read-out: AR IC50, 4° C. for 24 hours.
Method: (§3) RBC HotSpot Poly(ADP-ribose) Polymerases 1 (PARP1) and Poly(ADP-ribose) Polymerases 2 (PARP2) Assays: The assay was conducted at Reaction Biology Corporation (RBC; Malvern, PA). The assay principle is radioisotope-based filter binding assay where incorporation of radioisotope-labeled NAD^+ into the substrate captured on filter is detected after washout free NAD^+. Data were analyzed using Excel and GraphPad Prism software for IC50 curve fits. Each assay was conducted with PJ34 as a positive control. PARP1 assay: Human recombinant PARP1 at a final concentration of 2.5 nM was combined with histone H4 (20 μM) and test articles at various concentrations in reaction buffer (50 mM Tris-HCL, pH 8.0, 50 mM NaCl, 10 mM MgCl2, 1 mM DTT, 1% DMSO, and 20 μg/mL activated DNA). The solution was inoculated for 20 min at room temperature and the reaction initiated by adding [adenylate-^32P]-Nicotinamide Adenine Dinucleotide, ^32P-NAD^+ at a final concentration of 10 μM. After incubation for 2 hrs at room temperature, the reaction mixture was filtered and washed with 0.75% phosphoric acid for radioactivity detection. • ii. PARP2 assay: Human recombinant PARP2 at a final concentration of 2.5 nM was combined with histone H3 (20 μM) and test articles at various concentrations in reaction buffer (50 mM Tris-HCL, pH 8.0, 50 mM NaCl, 10 mM MgCl2, 1 mM DTT, 1% DMSO, and 20 μg/mL activated DNA). The solution was inoculated for 20 min at room temperature and the reaction was initiated by adding [adenylate-^32P]-Nicotinamide Adenine Dinucleotide, ^32P-NAD^+ at a final concentration of 10 μM. After incubation for 2 hrs at room temperature, the reaction mixture was filtered and washed with 0.75% phosphoric acid for radioactivity detection. b. AR binding assay: AR in LNCaP cytosol was used for determining the binding affinity of test articles and the reference compound—progesterone (Sigma, Cat: E2785, St. Louis, MO). IC50s were determined using 8 concentrations/compound. Cytosol was plated at 200 μg/well (100 μL) into a 96-well conical polypropylene plate (Agilent, Cat: 5042-1385, Santa Clara, CA) and mixed with 3 μL of test compound. After adding 100 μL of ^3H-methyltrienolone (PerkinElmer, Cat: NET590250UC, San Jose, CA), the plate was sealed and shaken at 300 rpm at 4° C. for 24 hours. Post incubation, 100 μL of radioligand adsorption buffer containing 10 mM Tris-HCl, pH 7.4; 1.5 mM EDTA; 1 mM DTT; 0.25% charcoal; 0.0025% dextran was added to individual well. Plate was shaken for 15 min at 4° C. followed by centrifugation at 3000 rpm for 30 min at 4° C. 150 μL of supernatant was transferred into scint-tube (PerkinElmer, Cat: 6000192) and mixed with 2 mL of Ultima Gold Cocktail (PerkinElmer, Cat: 6013329). Radioactivity was counted using a TriCarb 2910 TR scintillation counter (PerkinElmer). Inhibition of the radioactivity by test articles were calculated using the equation below: % Inhibition=(1−(Assay well-Average_LC)/(Average_HC-Average_LC))×100%. IC50 values were calculated and graphed using the model “log(inhibitor) vs. response—Variable slope” included in GraphPad Prism 5 (San Diego, CA). […] Ki=IC50/(1+[L]/Kd) c.
Experiment [4] deals with Human recombinant PARP1 (Homo sapiens (Human), UniProt P09874). Description: RBC HotSpot PARP1 radioisotope-based filter binding assay. Particulars: read-out: PARP1 IC50; 2.5 nM PARP1, histone H4, 10 μM 32P-NAD+.
Method: as §3
For experiment [5], the target named is Human recombinant PARP2 (Homo sapiens (Human), UniProt Q9UGN5). Description: RBC HotSpot PARP2 radioisotope-based filter binding assay. The conditions noted are these: read-out: PARP2 IC50; 2.5 nM PARP2, histone H3, 10 μM 32P-NAD+.
Chain of Human recombinant PARP2 (Q9UGN5 whole entry): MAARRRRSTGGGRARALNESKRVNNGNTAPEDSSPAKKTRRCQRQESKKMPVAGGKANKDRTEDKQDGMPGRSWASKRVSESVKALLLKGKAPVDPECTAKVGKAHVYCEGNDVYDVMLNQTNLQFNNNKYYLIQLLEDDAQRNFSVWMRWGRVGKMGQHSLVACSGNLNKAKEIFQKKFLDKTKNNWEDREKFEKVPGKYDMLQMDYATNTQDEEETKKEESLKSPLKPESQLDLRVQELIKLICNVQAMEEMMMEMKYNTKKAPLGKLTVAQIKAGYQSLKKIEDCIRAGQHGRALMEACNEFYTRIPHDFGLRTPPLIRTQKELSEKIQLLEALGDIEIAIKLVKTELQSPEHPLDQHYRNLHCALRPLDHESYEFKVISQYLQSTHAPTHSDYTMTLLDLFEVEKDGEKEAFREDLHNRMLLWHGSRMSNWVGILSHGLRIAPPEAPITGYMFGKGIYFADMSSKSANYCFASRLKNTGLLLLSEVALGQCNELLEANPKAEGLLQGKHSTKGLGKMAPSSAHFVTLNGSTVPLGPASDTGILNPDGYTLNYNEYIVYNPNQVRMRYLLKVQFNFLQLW
Method: as §3

Chain of Human recombinant PARP1 (P09874 whole entry): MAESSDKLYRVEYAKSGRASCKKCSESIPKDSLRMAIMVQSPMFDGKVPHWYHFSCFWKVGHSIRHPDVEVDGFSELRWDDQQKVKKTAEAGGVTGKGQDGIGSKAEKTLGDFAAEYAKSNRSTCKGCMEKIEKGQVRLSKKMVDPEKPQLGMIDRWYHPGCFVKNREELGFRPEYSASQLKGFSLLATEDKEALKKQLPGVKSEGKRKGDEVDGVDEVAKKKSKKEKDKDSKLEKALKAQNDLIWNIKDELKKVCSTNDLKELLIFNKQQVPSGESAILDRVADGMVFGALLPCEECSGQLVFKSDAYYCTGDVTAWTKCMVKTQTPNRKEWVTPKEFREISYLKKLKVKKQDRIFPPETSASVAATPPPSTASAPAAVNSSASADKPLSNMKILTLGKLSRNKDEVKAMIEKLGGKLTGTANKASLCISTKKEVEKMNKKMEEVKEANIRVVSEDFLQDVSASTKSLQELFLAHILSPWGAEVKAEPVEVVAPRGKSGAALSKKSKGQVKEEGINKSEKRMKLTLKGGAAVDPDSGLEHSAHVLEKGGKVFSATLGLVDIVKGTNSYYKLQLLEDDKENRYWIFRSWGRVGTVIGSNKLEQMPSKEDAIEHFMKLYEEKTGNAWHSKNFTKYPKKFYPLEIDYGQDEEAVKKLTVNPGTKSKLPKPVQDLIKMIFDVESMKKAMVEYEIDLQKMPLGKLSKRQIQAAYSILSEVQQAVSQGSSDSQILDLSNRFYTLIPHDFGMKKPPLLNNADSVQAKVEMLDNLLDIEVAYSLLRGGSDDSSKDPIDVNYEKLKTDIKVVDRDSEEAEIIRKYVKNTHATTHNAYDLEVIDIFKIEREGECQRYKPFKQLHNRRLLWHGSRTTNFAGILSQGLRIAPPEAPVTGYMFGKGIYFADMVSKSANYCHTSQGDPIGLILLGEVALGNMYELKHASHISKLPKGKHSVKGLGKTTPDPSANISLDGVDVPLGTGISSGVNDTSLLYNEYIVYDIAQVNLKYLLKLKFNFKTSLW
Chain of AR in LNCaP cytosol (P10275 whole entry T878A): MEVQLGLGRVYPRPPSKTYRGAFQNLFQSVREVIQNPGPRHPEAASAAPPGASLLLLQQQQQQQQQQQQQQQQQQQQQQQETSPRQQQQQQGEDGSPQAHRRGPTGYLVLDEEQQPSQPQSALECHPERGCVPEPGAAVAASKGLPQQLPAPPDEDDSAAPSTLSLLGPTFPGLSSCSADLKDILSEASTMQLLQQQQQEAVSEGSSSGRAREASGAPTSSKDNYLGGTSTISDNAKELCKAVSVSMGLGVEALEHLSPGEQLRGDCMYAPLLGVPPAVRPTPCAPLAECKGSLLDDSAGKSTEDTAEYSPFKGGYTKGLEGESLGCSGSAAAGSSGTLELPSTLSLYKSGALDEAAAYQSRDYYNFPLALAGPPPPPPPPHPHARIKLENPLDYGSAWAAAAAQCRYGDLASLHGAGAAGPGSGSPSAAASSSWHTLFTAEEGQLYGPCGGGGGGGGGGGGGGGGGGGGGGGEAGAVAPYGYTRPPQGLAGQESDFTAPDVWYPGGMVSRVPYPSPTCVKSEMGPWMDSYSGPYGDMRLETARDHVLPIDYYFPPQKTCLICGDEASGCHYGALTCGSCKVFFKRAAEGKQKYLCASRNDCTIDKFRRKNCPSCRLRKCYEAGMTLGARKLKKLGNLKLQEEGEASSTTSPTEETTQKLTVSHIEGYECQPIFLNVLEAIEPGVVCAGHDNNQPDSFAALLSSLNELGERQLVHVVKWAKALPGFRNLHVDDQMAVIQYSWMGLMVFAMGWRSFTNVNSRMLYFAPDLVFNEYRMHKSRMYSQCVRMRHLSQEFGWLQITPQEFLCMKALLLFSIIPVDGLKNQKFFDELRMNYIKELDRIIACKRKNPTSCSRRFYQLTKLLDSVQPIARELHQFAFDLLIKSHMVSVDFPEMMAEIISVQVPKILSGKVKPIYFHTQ

As for `C[C@](O)(COC1CCN(C(=O)c2cc(Cc3n[nH]c(=O)c4ccccc34)ccc2F)CC1)C(=O)Nc1ccc(C#N)c(C(F)(F)F)c1` [Compound 1.5, (S)—N-(4-cyano-3-(trifluoromethyl)phenyl)-3-(1-(2-fluoro-5-((4-oxo-3,4-dihydrophthalazin-1-yl)methyl)benzoyl)piperidin-4-yloxy)-2-hydroxy-2-methylpropanamide], the IC50 in experiment [1] was 14000 nM; in experiment [2], 20000 nM; in experiment [3], 6670 nM; in experiment [4], 2 nM; in experiment [5] it was 0.4 nM.
As for `CC1(C)C(=O)N(c2ccc(C#N)c(C(F)(F)F)c2)C(=S)N1CCNC(=O)c1cc(Cc2n[nH]c(=O)c3ccccc23)ccc1F` [Compound 1.6, N-(2-(3-(4-cyano-3-(trifluoromethyl)phenyl)-5,5-dimethyl-4-oxo-2-thioxoimidazolidin-1-yl)ethyl)-2-fluoro-5-((4-oxo-3,4-dihydrophthalazin-1-yl)methyl)benzamide], the IC50 was determined as 6000 nM in experiment [1]; 10000 nM in experiment [2]; 94 nM in experiment [3]; 5 nM in experiment [4]; 0.6 nM in experiment [5].
On the same counts, the results for `CC1(C)C(=O)N(c2ccc(C#N)c(C(F)(F)F)c2)C(=O)N1CCNC(=O)c1cc(Cc2n[nH]c(=O)c3ccccc23)ccc1F` [Compound 1.8, N-(2-(3-(4-cyano-3-(trifluoromethyl)phenyl)-5,5-dimethyl-2,4-dioxoimidazolidin-1-yl)ethyl)-2-fluoro-5-((4-oxo-3,4-dihydrophthalazin-1-yl)methyl)benzamide] are 5000 nM, 17000 nM, 503 nM, 10 nM and 1 nM.
The like results for `C[C@](O)(CS(=O)(=O)C1CCN(C(=O)c2cc(Cc3n[nH]c(=O)c4ccccc34)ccc2F)CC1)C(=O)Nc1ccc(C#N)c(C(F)(F)F)c1` [Compound 1.4, (R)—N-(4-cyano-3-(trifluoromethyl)phenyl)-3-(1-(2-fluoro-5-((4-oxo-3,4-dihydrophthalazin-1-yl)methyl)benzoyl)piperidin-4-ylsulfonyl)-2-hydroxy-2-methylpropanamide] were, in that order, 21000 nM, above 30000 nM, 1030 nM, 0.6 nM and 0.2 nM.
`Cn1ncnc1[C@H]1c2n[nH]c(=O)c3cc(F)cc(c23)N[C@@H]1c1ccc(N2C(=S)N(c3ccc(C#N)c(C(F)(F)F)c3)C(=O)C2(C)C)cc1` [Compound 1.2a, 4-(3-(4-((8S,9R)-5-fluoro-9-(1-methyl-1H-1,2,4-triazol-5-yl)-3-oxo-3,7,8,9-tetrahydro-2H-pyrido[4,3,2-de]phthalazin-8-yl)phenyl)-4,4-dimethyl-5-oxo-2-thioxoimidazolidin-1-yl)-2-(trifluoromethyl)benzonitrile]: the IC50 is above 10000 nM in experiment [1], above 10000 nM in experiment [2], above 3750 nM in experiment [3] and 0.3 nM in experiment [5].
`CC1(C)C(=O)N(c2ccc([N+](=O)[O-])c(C(F)(F)F)c2)C(=O)N1CCNC(=O)c1cc(Cc2n[nH]c(=O)c3ccccc23)ccc1F` [Compound 1.7, N-(2-(5,5-dimethyl-3-(4-nitro-3-(trifluoromethyl)phenyl)-2,4-dioxoimidazolidin-1-yl)ethyl)-2-fluoro-5-((4-oxo-3,4-dihydrophthalazin-1-yl)methyl)benzamide]: the IC50 in experiment [1] was 3000 nM; in experiment [2], 10000 nM; in experiment [3], 4620 nM; in experiment [4], 7 nM; in experiment [5], 1 nM.

The term IC50 denotes the point on the concentration scale where inhibition reaches its midpoint.
